Source: patent publication EP2020405A1, “Substituted aryl or heteroarylpiperidine derivatives as melanocortin-4 receptor modulators” (Santhera Pharmaceuticals (Schweiz) AG, priority 2007, dated 2009)

Assays:
hMC-4R [1] = target: T1, hMC-4R (Homo sapiens, UniProt P32245); assay: Membrane binding assay (fluorescence polarization, competition with fluorescence labeled NDP-alpha-MSH); details: HEK293 cell membrane preparations expressing human melanocortin receptors; 5 h at room temperature
T1 construct: expressed in transfected cells; host or cells: HEK293
T1 sequence (P32245 whole entry): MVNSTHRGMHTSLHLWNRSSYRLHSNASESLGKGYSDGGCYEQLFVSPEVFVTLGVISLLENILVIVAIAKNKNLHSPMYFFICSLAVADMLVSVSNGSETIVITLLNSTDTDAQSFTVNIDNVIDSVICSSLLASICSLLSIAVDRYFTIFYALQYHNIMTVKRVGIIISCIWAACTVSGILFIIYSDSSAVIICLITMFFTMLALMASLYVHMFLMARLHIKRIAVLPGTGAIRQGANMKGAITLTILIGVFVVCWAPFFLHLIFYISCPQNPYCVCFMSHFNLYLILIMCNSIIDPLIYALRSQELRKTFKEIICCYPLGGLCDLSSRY

hMC-4R [2] = target: T1, hMC-4R; assay: Functional assay (membrane based cAMP fluorescence polarization, agonistic activity); format: biochemical; set-up: concentration or dose not given beside the values; details: cAMP produced compared to stimulation with NDP-alpha-MSH
Description: Agonistic activity of human melanocortin receptors is determined in a homogeneous membrane based assay.
Membrane preparations from HEK293 cells expressing the human melanocortin receptors are added. After a short preincubation period, an appropriate amount of ATP, GTP and the cAMP antibody is added and the plate is further incubated before the fluorescence labeled cAMP conjugate is dispensed. The plate is incubated for 2 h at 4°C before it is read on a fluorescence polarization microplate reader. The amount of cAMP produced as a response to a test compound is compared to the production of cAMP resulting from stimulation with NDP-alpha-MSH.

IC50 (hMC-4R [1]) [nM]	% activation functional assay (hMC-4R [2]) [%]	SMILES
180	0	O=C(C(Cc1ccc(Cl)cc1Cl)N1CCCCC1)N1CCC(c2cc(F)ccc2CCN2CCCC2)CC1 (stereo not drawn) [Example 15]
2.1	0	CCC(COc1cc(Cl)ccc1C1CCN(C(=O)[C@@H](Cc2ccc(Cl)cc2Cl)N2CCCC2)CC1)N1CCCC1 (stereo partly drawn) [Example 3]
7.7	0	O=C(C(Cc1ccc(Cl)cc1Cl)n1cncn1)N1CCC(c2ccc(Cl)cc2OCCN2CCCC2)CC1 (stereo not drawn) [Example 23]
62	14	O=C(C(Cc1ccc(Cl)cc1Cl)N1CCCCC1)N1CCC(c2ccc(Cl)cc2OCCN2CCCC2)CC1 (stereo not drawn) [Example 10]
100	0	O=C(C(Cc1ccc(Cl)cc1Cl)N1CCOCC1)N1CCC(c2ccc(Cl)cc2OCCN2CCCC2)CC1 (stereo not drawn) [Example 25]
17	0	CCC(Cc1cc(Cl)ccc1C1CCN(C(=O)C(Cc2ccc(Cl)cc2Cl)n2cncn2)CC1)CN1CCCC1 (stereo not drawn) [Example 22]
5.9	0	O=C(C(Cc1ccc(Cl)cc1Cl)Nc1cccnc1)N1CCC(c2ccc(Cl)cc2OCCN2CCCC2)CC1 (stereo not drawn) [Example 27]
2.4	0	CCC(CN1CCCC1)Oc1cc(Cl)ccc1C1CCN(C(=O)[C@@H](Cc2ccc(Cl)cc2Cl)N2CCCC2)CC1 (stereo partly drawn) [Example 4]
220	0	Cc1ccn(C(Cc2ccc(Cl)cc2Cl)C(=O)N2CCC(c3ccc(Cl)cc3OCCN3CCCC3)CC2)n1 (stereo not drawn) [Example 34]
